Assay results taken from patent US5994365A, “Substituted diazaanthracene compounds having pharmaceutical utility” (Diazans Limited, priority 1998, dated 1999).
“And” between values parts separate entries of the source, which are not always exact repeats. Identical values can stand only once.

Tests used:
ATCC S. epid 14990 [1] = assay: Broth microdilution (NCCLS guidelines), MIC; assay type: cell-based; conditions: for MICs: in µg/mL
Procedure: (§1) The dimer product of Example 15 was obtained in powder form. A stock solution of 1280 mg/L of the dimer in dimethylsulfoxide (DMSO) was prepared and stored at room temperature in a foil-wrapped screw-capped tube (10 ml). Subsequent dilutions were prepared using cation-adjusted Mueller-Hinton broth (50 mg/L Mg). […] It was resuspended upon mixing each time an aliquot was taken from the solution.
(§2) Approximately 100 varied bacterial isolates were initially collected for screening, along with 9 ATCC organisms. Forty additional strains of Staphylococcus species were subsequently screened. All isolates were identified according to generally accepted lab protocol.
(§3) Broth microdilution was performed according to NCCLS guidelines. Microdilution panels were prepared using doubling dilutions of the dimer in ~250 μl plastic, 96-well trays. Inoculum suspension equal to a 0.5 McFarland standard were further diluted and added to the microdilution trays to achieve a final inoculum of 5×10^5 CFU/ml (5×10^4 CFU/well). Colony counts were performed to confirm the final inoculum, as well as its purity. Each strain was also tested in a growth control well containing only MHB for viability.
(§4) Microdilution trays were incubated at 35° C. in ambient air or 5% CO2 as appropriate for 16-20 hours. After incubation, the minimal inhibitory concentration (MIC) was defined as the lowest concentration of the dimer with no evidence of growth. Since 10 or more strains of most organisms were tested; a range of MICs was determined for each organism, as well as the concentration of the dimer that inhibited 50% of the strains (MIC50) and the concentration of the dimer that inhibited 90% of the strains (MIC90).

Acinetobacter = assay: Broth microdilution (NCCLS guidelines), MIC; assay type: cell-based; conditions: Table A, 5 strains
Procedure: as §1, §2, §3, §4

B. cepacia = assay: Broth microdilution (NCCLS guidelines), MIC; assay type: cell-based; conditions: Table A, 5 strains
Procedure: as §1, §2, §3, §4

Enterobacteriaceae = assay: Broth microdilution (NCCLS guidelines), MIC; assay type: cell-based; conditions: Table A, 10 strains
Procedure: as §1, §2, §3, §4

[2] = system: Vancomycin resistant Enterococcus (VRE); assay: Broth microdilution (NCCLS guidelines), MIC; assay type: cell-based; conditions: Table A
Procedure: as §1, §2, §3, §4

[3] = system: Vancomycin susceptible Enterococcus (VSE); assay: Broth microdilution (NCCLS guidelines), MIC; assay type: cell-based; conditions: Table A
Procedure: as §1, §2, §3, §4

ATCC EC 25922 = assay: Broth microdilution (NCCLS guidelines), MIC; assay type: cell-based, Escherichia coli; conditions: Table A
Procedure: as §1, §2, §3
Microdilution trays were incubated at 35° C. in ambient air or 5% CO2 as appropriate for 16-20 hours. […]

S. aureus = assay: Minimal bactericidal concentration (MBC), 99.9% kill; assay type: cell-based, Staphylococcus aureus
Procedure: as §3
(§5) Various isolates were also tested for minimal bactericidal concentration (MBC) (see Tables D and F).
Subbed clear wells (50 μl) Inoculum 5 × 10^4 /well
99.9% kill = 50 cols/well
(§6) Subbed 50 μl of ≤5 clear wells

ATCC S. epid 14990 [4] = assay: as above; assay type: cell-based
Procedure: as §3, §5, §6

[5] = Precipitation of the dimer on dilution with Mueller-Hinton broth; assay type: physicochemical; conditions: resuspended upon mixing
Procedure: as §1

[6] = Table G footnote, ATCC 14990 (coag neg staph)

Which results are given for “10,10'-bis(3,6-dimethyl-5,10-dihydro-1,8-diazaanthracen-5-one) and 5,5'-bis(3,6-dimethyl-5,10-dihydro-1,8-diazaanthracen-10-one) [Example 15]”?
MICs (ATCC S. epid 14990 [1]; Table C, ATCC S. epid 14990 (×2), solution 14 days old): 0.25; MICs (ATCC S. epid 14990 [1]; Table E, ATCC S. epid 14990, fresh solution, * = skipped wells (second value), listed as Dimer): 0.3125 and 0.5; MIC (ATCC S. epid 14990 [1]; Table F, ATCC S. epid 14990): 0.0312 µg/mL; MIC (ATCC S. epid 14990 [1]; [6]): 0.0312 µg/mL; MIC50 (Acinetobacter): > 64 µg/mL; MIC90 (Acinetobacter): > 64 µg/mL; Range of MICs (Acinetobacter): > 64 mg/L; MIC50 (B. cepacia): > 64 µg/mL; MIC90 (B. cepacia): > 64 µg/mL; Range of MICs (B. cepacia): ≥ 64 mg/L; MIC50 (Enterobacteriaceae): > 64 µg/mL; MIC90 (Enterobacteriaceae): > 64 µg/mL; Range of MICs (Enterobacteriaceae): > 64 mg/L; MIC50 ([2]; 12 strains): 64 µg/mL; MIC90 ([2]; 12 strains): > 64 µg/mL; Range of MICs ([2]; 12 strains): ≥ 64 mg/L; MIC ([2]; ATCC VRE 51299): > 64 µg/mL; MIC50 ([3]; 12 strains): > 64 µg/mL; MIC90 ([3]; 12 strains): > 64 µg/mL; MIC ([3]; ATCC VSE 29212): > 64 µg/mL; MIC (ATCC EC 25922): > 64 µg/mL; MBC (S. aureus; Table D, S. aureus 1): 2 µg/mL; MBC (S. aureus; Table D, S. aureus 2): > 16 µg/mL; MBC (S. aureus; Table D, S. aureus 3): 16 µg/mL; MBC (S. aureus; Table D, S. aureus 4): 8 µg/mL; MBC (S. aureus; Table D, S. aureus 5): > 16 µg/mL; MBC (S. aureus; Table D, S. aureus 6, skipped wells): > 16 µg/mL; MBC (S. aureus; Table D, S. aureus 7): > 16 µg/mL; MBC (S. aureus; Table D, S. aureus 8, skipped wells): > 16 µg/mL; MBC (S. aureus; Table F, ATCC S. aureus 25923): 4 µg/mL; MBC (S. aureus; Table F, ATCC S. aureus 29213, skipped wells): > 16 µg/mL; MBC (S. aureus; Table F, Pip/Taz S. aureus 1): 8 µg/mL; MBC (S. aureus; Table F, Pip/Taz S. aureus 3): 4 µg/mL; MBC (S. aureus; Table F, Pip/Taz S. aureus 7): 2 µg/mL; MBC (S. aureus; Table F, S. aureus 1, skipped wells): 4 µg/mL; MBC (S. aureus; Table F, S. aureus 2): 1 µg/mL; MBC (S. aureus; Table F, S. aureus 8, skipped wells): ≥ 8 µg/mL; MBC (S. aureus; Table G footnote, ATCC 25923, methicillin susceptible): 4 µg/mL; MBC (S. aureus; Table G footnote, ATCC 29213, methicillin susceptible, skipped wells): 16 µg/mL; MBC (ATCC S. epid 14990 [4]; Table F, ATCC S. epid 14990): > 0.5 µg/mL; MBC (ATCC S. epid 14990 [4]; [6]): ≥ 0.5 µg/mL; precipitation ([5]; at 128 mg/L in MHB): Some precipitation occurred at 128 mg/L; precipitation upon dilution with MH broth ([5]; from 1280 mg/L DMSO stock, after sitting for short periods): some precipitation upon dilution with MH broth
